Measurements published in article PMC9511823 (Bioorganic & medicinal chemistry letters, 2020).
Like-named read-outs stand apart in the source and are kept apart here.

Legend:
[1] = target: T1, CpIMPDH (Cryptosporidium parvum, UniProt Q8T6T2); assay: biochemical; format: biochemical; conditions: for CpIMPDH inhibition, result in words: relative to parent anilide
T1 sequence (Q8T6T2 1-400): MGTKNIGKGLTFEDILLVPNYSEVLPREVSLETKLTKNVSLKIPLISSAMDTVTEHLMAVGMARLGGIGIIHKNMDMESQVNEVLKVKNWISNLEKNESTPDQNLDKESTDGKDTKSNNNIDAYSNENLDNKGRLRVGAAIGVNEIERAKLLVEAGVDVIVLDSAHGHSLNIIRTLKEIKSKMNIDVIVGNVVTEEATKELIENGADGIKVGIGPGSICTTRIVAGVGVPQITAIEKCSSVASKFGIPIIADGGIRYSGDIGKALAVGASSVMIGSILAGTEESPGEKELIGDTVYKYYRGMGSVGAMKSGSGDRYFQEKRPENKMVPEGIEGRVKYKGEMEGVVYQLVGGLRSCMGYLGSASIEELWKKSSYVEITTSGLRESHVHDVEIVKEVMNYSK

[2] = target: HsIMPDH2 (Homo sapiens, UniProt P12268); assay: HsIMPDH2 enzyme inhibition; format: biochemical
[3] = target: T1, CpIMPDH; conditions: read-out: CpIMPDH Ki; cited from earlier work
[4] = target: HsIMPDH1; conditions: read-out: HsIMPDH1 Ki; cited from earlier work
[5] = target: MtbIMPDH (Mycobacterium tuberculosis, UniProt P9WKI7); assay: MtbIMPDH inhibition; format: biochemical
Chain of MtbIMPDH (P9WKI7 whole entry, looked up): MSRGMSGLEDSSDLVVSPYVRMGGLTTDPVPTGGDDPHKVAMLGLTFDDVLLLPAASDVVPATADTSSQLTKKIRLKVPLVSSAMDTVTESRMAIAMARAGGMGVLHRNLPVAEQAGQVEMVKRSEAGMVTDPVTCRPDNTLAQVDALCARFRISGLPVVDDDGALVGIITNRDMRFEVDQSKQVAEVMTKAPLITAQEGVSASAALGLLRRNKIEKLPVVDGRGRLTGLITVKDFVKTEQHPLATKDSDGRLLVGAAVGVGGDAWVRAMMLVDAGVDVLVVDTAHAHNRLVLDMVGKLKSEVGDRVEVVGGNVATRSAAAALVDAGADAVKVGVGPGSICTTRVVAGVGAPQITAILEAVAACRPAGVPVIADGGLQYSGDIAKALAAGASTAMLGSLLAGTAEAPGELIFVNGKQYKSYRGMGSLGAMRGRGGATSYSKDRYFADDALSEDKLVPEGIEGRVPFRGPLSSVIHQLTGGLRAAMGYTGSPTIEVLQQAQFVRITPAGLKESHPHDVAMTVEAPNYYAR

[6] = ratio of Ki,app of the two enantiomers

| Structure (SMILES) | Ki [1] [nM] | Ki [2] [nM] | also measured |
| --- | --- | --- | --- |
| COc1c(C)c2c(c(O)c1C/C=C(\C)CCC(=O)Nc1cccc(Cl)c1Cl)C(=O)OC2 [Compound 11] | – | – | CpIMPDH inhibition, result in words [1]: loss of CpIMPDH inhibitory activity |
| COc1c(C)c2c(c(O)c1CCOCC(=O)Nc1ccc(Cl)cc1)C(=O)OC2 [Compound 38] | 405 | 870 | – |
| COc1c(C)c2c(c(O)c1C/C=C/C(=O)Nc1ccc(Cl)cc1)C(=O)OC2 [Compound 42a] | 480 | 550 | – |
| COc1c(C)c2c(c(O)c1CC(=O)Nc1ccc(Cl)cc1)C(=O)OC2 [Compound 44] | 2800 | 800 | – |
| COc1c(C)c2c(c(O)c1C[C@@H]1C[C@@]1(C)CCC(=O)Nc1ccc(Cl)c(C(F)(F)F)c1)C(=O)OC2 [Compound 31b] | 66 | 460 | eudysmic ratio of 31b and 31a for CpIMPDH inhibition [1, 6]: 8.6; eudysmic ratio of 31b and 31a for HsIMPDH inhibition [2, 6]: 3.1 |
| COc1c(C)c2c(c(O)c1CCCC(=O)Nc1ccc(Cl)cc1)C(=O)OC2 [Compound 42b] | 450 | 290 | – |
| COc1c(C)c2c(c(O)c1C/C=C(\C)CCC(=O)Nc1ccc(F)cc1)C(=O)OC2 [Compound 13] | 180 | – | – |
| COc1c(C)c2c(c(O)c1C[C@H]1C[C@]1(C)CCC(=O)Nc1ccc(Cl)c(C(F)(F)F)c1)C(=O)OC2 [Compound 31a] | 570 | 1400 | – |
| COc1c(C)c2c(c(O)c1C/C=C(\C)CCC(=O)N(C)c1ccc(Cl)cc1)C(=O)OC2 [Compound 16] | – | – | CpIMPDH inhibition, result in words [1]: loss of activity |
| COc1c(C)c2c(c(O)c1C/C=C(\C)CCC(=O)O)C(=O)OC2 [MPA, Mycophenolic acid] | – | – | Ki [3]: 9300 nM; Ki [4]: 33 nM |
| COc1c(C)c2c(c(O)c1C/C=C(\C)CCC(=O)Nc1ccc(C(F)(F)F)cc1)C(=O)OC2 [Compound 14] | 151 | – | – |
| COc1c(C)c2c(c(O)c1C/C=C(\C)CCC(=O)Nc1ccc(Cl)c(C(F)(F)F)c1)C(=O)OC2 [Compound 10] | – | – | Ki [5]: 60 nM |
